Reference: ChEMBL document CHEMBL1201862, “PubChem BioAssay data set” (2004)
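Cultured in 96-well plates, cells were exposed to test compound for 48 hours across five concentrations. GI50 is the concentration that inhibits growth by half.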 Active and inactive are the calls of the source. Cut-off read from the data, not from the text of the source: active = GI50 up to about 1.1 µM and inactive = higher.

Legend:
Assay in all cases: inhibition of tumour cell growth, NCI panel, 48 h
CAKI-1 = tested on: CAKI-1
CCRF-CEM = tested on: CCRF-CEM
EKVX = tested on: EKVX
HOP-92 = tested on: HOP-92
HT-29 = tested on: HT-29
KM-20L2 = tested on: KM-20L2
KM12 = tested on: KM12
LOX IMVI = tested on: LOX IMVI
MCF7 = tested on: MCF7
NCI-H460 = tested on: NCI-H460
RXF 393 = tested on: RXF 393
SF-295 = tested on: SF-295
SK-MEL-5 = tested on: SK-MEL-5
SK-OV-3 = tested on: SK-OV-3
SN12C = tested on: SN12C
SNB-75 = tested on: SNB-75
SNB-78 = tested on: SNB-78
U-251 = tested on: U-251
UACC-62 = tested on: UACC-62
TK-10 = tested on: TK-10

| Compound | GI50 (CAKI-1) | GI50 (CCRF-CEM) | GI50 (EKVX) | GI50 (HOP-92) | GI50 (HT-29) | GI50 (KM-20L2) | GI50 (KM12) | GI50 (LOX IMVI) | GI50 (MCF7) | GI50 (NCI-H460) | GI50 (RXF 393) | GI50 (SF-295) | GI50 (SK-MEL-5) | GI50 (SK-OV-3) | GI50 (SN12C) | GI50 (SNB-75) | GI50 (SNB-78) | GI50 (U-251) | GI50 (UACC-62) | GI50 (TK-10) |
| --- | --- | --- | --- | --- | --- | --- | --- | --- | --- | --- | --- | --- | --- | --- | --- | --- | --- | --- | --- | --- |
| CC(=O)OC1C=C(C=O)C(O)(C=O)C2(C)CCCC(C)(C)C12 (configuration not stated) | 1 µM (active) | 0.238 µM (active) | 2.65 µM (inactive) | 1.05 µM (active) | 1.39 µM (inactive) | 2.11 µM (inactive) | 2.31 µM (inactive) | 0.942 µM (active) | 1.89 µM (inactive) | 1.64 µM (inactive) | 0.491 µM (active) | 3.07 µM (inactive) | 1.17 µM (inactive) | 4.34 µM (inactive) | 2.52 µM (inactive) | 2.4 µM (inactive) | 2.67 µM (inactive) | 3.8 µM (inactive) | 2.76 µM (inactive) | – |
| CCOC1CC2OC(=O)C1C=C2C(=O)OC (configuration not stated) | 22.3 µM (inactive) | 16.8 µM (inactive) | > 100 µM (inactive) | 32.7 µM (inactive) | 37.5 µM (inactive) | 55.6 µM (inactive) | 54.5 µM (inactive) | 87.5 µM (inactive) | – | 79.3 µM (inactive) | – | > 100 µM (inactive) | 36.4 µM (inactive) | > 100 µM (inactive) | – | – | 37.2 µM (inactive) | 50.1 µM (inactive) | 30.5 µM (inactive) | 37.8 µM (inactive) |
| O=C1OC(c2ccccc2)=N/C1=C\c1cccnc1 | – | 29.2 µM (inactive) | > 100 µM (inactive) | > 100 µM (inactive) | > 100 µM (inactive) | – | > 100 µM (inactive) | – | > 100 µM (inactive) | > 100 µM (inactive) | > 100 µM (inactive) | > 100 µM (inactive) | > 100 µM (inactive) | > 100 µM (inactive) | – | > 100 µM (inactive) | – | > 100 µM (inactive) | > 100 µM (inactive) | > 100 µM (inactive) |
| CCCCCCCCC1=CCC(CN(C)C)C1=O (configuration not stated) | – | 10.6 µM (inactive) | 23.6 µM (inactive) | 16.9 µM (inactive) | 19.4 µM (inactive) | 21.9 µM (inactive) | 15.1 µM (inactive) | 16.6 µM (inactive) | 4.69 µM (inactive) | 16.3 µM (inactive) | 19.7 µM (inactive) | > 42.1 µM (inactive) | 20.1 µM (inactive) | > 100 µM (inactive) | 17.1 µM (inactive) | 17.7 µM (inactive) | 23.8 µM (inactive) | 18.1 µM (inactive) | 18.1 µM (inactive) | – |
| CC(C)C1=CC2=CC[C@@H]3[C@](C)(CCC[C@@]3(C)C(=O)O)[C@H]2CC1 [ABIETIC ACID] | 36.2 µM (inactive) | 42.9 µM (inactive) | 42.6 µM (inactive) | 37.2 µM (inactive) | 30.1 µM (inactive) | 63.2 µM (inactive) | 37.8 µM (inactive) | 58.6 µM (inactive) | – | 47 µM (inactive) | > 62.1 µM (inactive) | 37.8 µM (inactive) | 60.5 µM (inactive) | > 81.7 µM (inactive) | 62.4 µM (inactive) | 55.8 µM (inactive) | 59.7 µM (inactive) | 50.1 µM (inactive) | 36.3 µM (inactive) | > 66.4 µM (inactive) |
| NC1CC(=O)c2sc(I)cc21 (configuration not stated) | 40.3 µM (inactive) | 37.4 µM (inactive) | > 100 µM (inactive) | – | > 100 µM (inactive) | – | > 100 µM (inactive) | – | > 100 µM (inactive) | 69.8 µM (inactive) | > 100 µM (inactive) | – | > 100 µM (inactive) | > 100 µM (inactive) | > 100 µM (inactive) | > 100 µM (inactive) | – | > 100 µM (inactive) | > 100 µM (inactive) | > 100 µM (inactive) |
| CC1=COC2=C(C)C(=O)C(=O)c3c(C)ccc1c32 [MANSONONE F] | 20.3 µM (inactive) | 2.98 µM (inactive) | 6.92 µM (inactive) | 15.6 µM (inactive) | 3.15 µM (inactive) | – | 3.93 µM (inactive) | 3.66 µM (inactive) | 2.69 µM (inactive) | 2.18 µM (inactive) | 7.18 µM (inactive) | 5.48 µM (inactive) | 0.859 µM (active) | 15.8 µM (inactive) | 3.71 µM (inactive) | 9.06 µM (inactive) | – | 4.38 µM (inactive) | 3.24 µM (inactive) | 42.1 µM (inactive) |
| CC(=N/NC(=S)N1CCCCCC1)/C(C)=N\NC(=S)N1CCCCCC1 | 4.91 µM (inactive) | – | 3.85 µM (inactive) | 1.32 µM (inactive) | 2.63 µM (inactive) | – | 4.59 µM (inactive) | > 10 µM (inactive) | 4.7 µM (inactive) | 4.38 µM (inactive) | 3.77 µM (inactive) | 4.93 µM (inactive) | 4.86 µM (inactive) | 3.88 µM (inactive) | 1.91 µM (inactive) | 5.09 µM (inactive) | – | 2.43 µM (inactive) | 4.29 µM (inactive) | 4.34 µM (inactive) |
